Assay results published in patent publication US9055743B2, “Alpha, beta-unsaturated imines” (BAYER INTELLECTUAL PROPERTY GMBH, priority 2010, dated 2015).

Tests used:
Assay type in all cases: in vivo
[1] = tested on: caterpillars of the army worm (Spodoptera frugiperda); test: Spodoptera frugiperda test (SPODFR spray treatment); conditions: 500 g/ha, spray, after 7 days
Description: Spodoptera frugiperda Test (SPODFR Spray Treatment) Solvents: 78.0 parts by weight of acetone • • 1.5 parts by weight of dimethylformamide Emulsifier: 0.5 part by weight of alkylaryl polyglycol ether
(§1) To produce a suitable preparation of active compound, 1 part by weight of active compound is mixed with the stated amounts of solvents and emulsifier, and the concentrate is diluted with emulsifier-containing water to the desired concentration.
Discs of maize leaves (Zea mays) are sprayed with an active compound preparation of the desired concentration and, after drying, populated with caterpillars of the army worm (Spodoptera frugiperda) besetzt.
After 7 days, the activity in % is determined. 100% means that all caterpillars have been killed; 0% means that none of the caterpillars have been killed.

[2] = tested on: green peach aphid (Myzus persicae); test: Myzus test (MYZUPE spray treatment); conditions: 500 g/ha, spray, after 6 days
Description: Myzus Test (MYZUPE Spray Treatment) Solvents: 78 parts by weight of acetone • • 1.5 parts by weight of dimethylformamide Emulsifier: 0.5 part by weight of alkylaryl polyglycol ether
as §1
Discs of Chinese cabbage leaves (Brassica pekinensis) which are infested by all stages of the green peach aphid (Myzus persicae) are sprayed with an active compound preparation of the desired concentration.
After 6 days, the activity in % is determined. 100% means that all aphids have been killed; 0% means that none of the aphids have been killed.

[3] = tested on: Anopheles gambiae (homocygus kdr); test: Anopheles test (ANPHGB surface treatment); conditions: exposition 30 minutes; for activity (mortality in %): 100 mg/m^2, 24 hours after contact; for knock-down activity: 100 mg/m^2, two hours after contact
Description: Anopheles Test (ANPHGB Surface Treatment) Solvent: Acetone
To produce a suitable preparation of active compound, the active compound is dissolved in acetone (2 mg/ml). The active compound preparation is pipetted onto a glazed tile and, after drying, adult mosquitoes of the species Anopheles gambiae (homocygus kdr) are placed onto the treated tile. The exposition time is 30 minutes.
Two hours after contact to the treated surface, the knock-down proportion of the test animals in % is determined.
24 hours after contact to the treated surface, the mortality in % is determined. Here, 100% means that all mosquitoes have been killed; 0% means that none of the mosquitoes has been killed.

[4] = tested on: larvae of the mustard beetle (Phaedon cochleariae); test: Phaedon test (PHAECO spray treatment); conditions: 500 g/ha, spray, after 7 days
Description: Phaedon Test ([…] Spray Treatment) Solvents: 78.0 parts by weight of acetone • • 1.5 parts by weight of dimethylformamide Emulsifier: 0.5 part by weight of alkylaryl polyglycol ether To produce a suitable preparation of active compound, 1 part by weight of active compound is mixed with the stated amounts of solvents and emulsifiers, and the concentrate is diluted with emulsifier-containing water to the desired concentration. Discs of Chinese cabbage leaves (Brassica pekinensis) are sprayed with an active compound preparation of the desired concentration and, after drying, populated with larvae of the mustard beetle (Phaedon cochleariae).

[5] = tested on: greenhouse red spider mite (Tetranychus urticae); test: Tetranychus test; OP-resistant (TETRUR spray treatment); conditions: 500 g/ha, spray, after 6 days
Description: Tetranychus Test; OP-Resistant (TETRUR Spray Treatment) Solvents: 78.0 parts by weight of acetone • • 1.5 parts by weight of dimethylformamide Emulsifier: 0.5 part by weight of alkylaryl polyglycol ether
as §1
Discs of bean leaves (Phaseolus vulgaris) infested by all stages of the greenhouse red spider mite (Tetranychus urticae) are sprayed with an active compound preparation of the desired concentration.
After 6 days, the activity in % is determined. 100% means that all spider mites have been killed; 0% means that none of the spider mites have been killed.

| SMILES | activity (caterpillars killed) [1] [%] | activity (spider mites killed) [5] [%] | activity (beetle larvae killed) [4] [%] | other results |
| --- | --- | --- | --- | --- |
| Cc1ccc(N=C2C(Br)=CC(C)(C)CC2=CSc2ccc(F)cc2)cc1 [Example 1-49] | 100 |  |  | activity (aphids killed) [2]: 90% |
| COc1ccc2c(c1C)OCC(=CSc1ccc(F)cc1)C2=Nc1ccc(C)cc1 [Example 1-52] |  |  |  | activity (mortality in %) [3]: 85% |
| Cc1ccc(N=C2C(=CSc3ccccc3)CCC/C2=C\Sc2ccccc2)cc1 [Example 1-60, N-{2,6-Bis[(phenylsulphanyl)methylene]cyclohexylidene}-4-methylaniline] |  |  |  | pest or weed control at 500 g/ha ([4]; Phaedon cochleariae, 168 h, read-out: activity (beetle larvae killed)): 100%; pest or weed control at 500 g/ha ([1]; Spodoptera frugiperda, 168 h, read-out: activity (caterpillars killed)): 100% |
| Cc1ccc(N=C2C=CC(C)(C)CC2=CSc2ccc(F)cc2)cc1C [Example 1-64] | 100 | 80 |  | activity (aphids killed) [2]: 80%; knock-down activity [3]: 100% |
| Cc1ccc(N=C2C(=CSc3ccc(F)cc3)CCc3sc(Cl)cc32)cc1 [Example 1-66] | 100 |  | 100 |  |
| Cc1cc(C)cc(N=C2C(=CSc3ccc(F)cc3)CCc3ccccc32)c1 [Example 1-67] | 100 |  | 100 | activity (aphids killed) [2]: 80% |
| Cc1ccc(N=C2C(=CSc3ccc(F)cc3)CCc3ccccc32)cc1C#N [Example 1-68] | 100 | 100 | 100 |  |
| COc1ccc(SC=C2CCc3ccccc3C2=Nc2ccc(C)cc2)cc1 [Example 1-73] |  | 80 |  |  |
| Cc1ccc(N=C2C(=CSc3ccc(F)cc3)COc3cc(C(C)(C)C)ccc32)cc1 [Example 1-75] | 100 |  |  |  |
| Cc1ccc(N=C2C(=CSc3ccc(F)cc3)CCc3cc(C)cc(C)c32)cc1 [Example 1-77] |  |  |  | activity (mortality in %) [3]: 80% |
| Cc1ccc(N=C2C(=CSc3cccc(F)c3)CCc3ccccc32)cc1 [Example 1-78] | 100 | 100 | 100 | activity (aphids killed) [2]: 100% |
| Cc1ccc(N=C2C(=CSC3CCCC3)CCc3ccccc32)cc1 [Example 1-87] |  | 100 | 100 | activity (aphids killed) [2]: 100%; knock-down activity [3]: 80% |
| Cc1ccc(N=C2C(=CSc3ccc(F)cc3)CCc3ccccc32)cc1F [Example 1-89] | 100 | 100 | 100 | knock-down activity [3]: 100% |
| Cc1ccc(N=C2C(=CSc3ccc(F)cc3)CCc3c2ccc2ccccc32)cc1F [Example 1-92] | 100 | 100 | 100 |  |
| CC1=CC(C)(C)CC(=CSc2ccc(F)cc2)C1=Nc1ccc(C)cc1 [Example 1-93] |  | 90 |  |  |
| COc1ccc(N=C2c3ccccc3CCC2C(Sc2ccccc2)Sc2ccccc2)cc1 (stereo not shown) [Example 2-3] |  |  |  | activity (mortality in %) [3]: 95% |
| Cc1ccc(N=C2c3ccc(F)cc3CCC2C(Sc2ccc(F)cc2)Sc2ccc(F)cc2)cc1 (stereo not shown) [Example 2-6] |  |  |  | activity (mortality in %) [3]: 95% |
| Cc1ccc(N=C2c3cc(F)ccc3CCC2C(Sc2ccc(F)cc2)Sc2ccc(F)cc2)cc1 (stereo not shown) [Example 2-8] | 100 | 90 |  |  |
